The values below come from ChEMBL document CHEMBL4340502, “Anti-biofilm and anti-adherence properties of novel cyclic dipeptides against oral pathogens” (Bioorg Med Chem, 2019).

Series [1] has as its system Fusobacterium nucleatum. In words: Antibiofilm activity against Fusobacterium nucleatum ATCC 25586 assessed as inhibition of biofilm formation up to 96 ug/mL after 24 hrs by crystal violet staining based assay. It is filed as functional, organism-based.
For series [2], the system named is Porphyromonas gingivalis. In words: Antibiofilm activity against Porphyromonas gingivalis ATCC 33277 assessed as inhibition of biofilm formation up to 96 ug/mL after 24 hrs by crystal violet staining based assay. Format: functional, organism-based.
The test system of series [3] is Streptococcus mutans. The series can be described thus: Antibiofilm activity against Streptococcus mutans ATCC 25175 assessed as inhibition of biofilm formation up to 96 ug/mL after 24 hrs by crystal violet staining-based assay. It is filed as functional, organism-based.
The test system of series [4] is Streptococcus mutans. The series can be described thus: Inhibition of planktonic growth of Streptococcus mutans ATCC 25175 up to 96 ug/mL after 24 hrs relative to control. It is filed as organism-based.

Activity calls are given as the source filed them. The rule behind the calls is not given here.

On to `C[C@@H]1NC(=O)[C@@H](C)NC1=O`, for which the inhibition result in series [1], in series [2] and in series [3] was “inactive” each time. In addition, in series [4], the “growth inhibition (GI)” value is given as “Non-Toxic”.

As for `O=C1N[C@@H](Cc2ccc([N+](=O)[O-])cc2)C(=O)N[C@H]1Cc1ccc([N+](=O)[O-])cc1`, the inhibition result in series [1], in series [2] and in series [3] was “inactive” each time. In addition, the “growth inhibition (GI)” value in series [4] was “Non-Toxic”.

In the case of `C[C@H]1NC(=O)[C@@H](Cc2ccccc2)NC1=O`, the inhibition entry in series [1], in series [2] and in series [3] was “inactive” each time. In series [4], the “growth inhibition (GI)” value is “Non-Toxic”.

On to `CC(C)[C@@H]1NC(=O)[C@@H](Cc2ccc(OCc3ccccc3)cc2)NC1=O`, for which the inhibition result in series [1], in series [2] and in series [3] was “inactive” in each case. Moreover, the “growth inhibition (GI)” value in series [4] is listed as “Non-Toxic”.

Take `O=C1N[C@H](Cc2ccccc2)C(=O)N[C@@H]1COCc1ccccc1`: the inhibition entry in series [1], in series [2] and in series [3] was “inactive” throughout. Besides, the “growth inhibition (GI)” value in series [4] is “Non-Toxic”.

For `O=C1CNC(=O)[C@H](CCC(=O)OCc2ccccc2)N1`, the inhibition entry in series [1], in series [2] and in series [3] was “inactive” throughout. For the same molecule, the “growth inhibition (GI)” value in series [4] was “Non-Toxic”.

As to `CC(C)[C@@H]1NC(=O)[C@H](Cc2ccccc2)NC1=O`, the inhibition entry in series [1], in series [2] and in series [3] was “inactive” throughout. The “growth inhibition (GI)” value in series [4] was “Non-Toxic”.

Turning to `C[C@@H]1NC(=O)[C@H](CCC(N)=O)NC1=O`, the inhibition result in series [1], in series [2] and in series [3] was “inactive” each time. The “growth inhibition (GI)” value in series [4] is given as “Non-Toxic”.

For the molecule `C[C@@H]1NC(=O)[C@H](Cc2ccc(OCc3ccccc3)cc2)NC1=O`, the inhibition entry in series [1], in series [2] and in series [3] was “inactive” throughout. In addition, in series [4], the “growth inhibition (GI)” value was “Non-Toxic”.

Turning to `O=C(NCCCC[C@@H]1NC(=O)[C@H](Cc2ccccc2)NC1=O)OCc1ccccc1`, the inhibition entry in series [1], in series [2] and in series [3] was “inactive” throughout. Moreover, the “growth inhibition (GI)” value in series [4] is reported as “Non-Toxic”.

`O=C1N[C@H](COCc2ccccc2)C(=O)N[C@@H]1COCc1ccccc1`: the inhibition result in series [1], in series [2] and in series [3] was “inactive” throughout. The “growth inhibition (GI)” value in series [4] is given as “Non-Toxic”.

Take `O=C1[C@@H]2CSCN2C(=O)[C@@H]2CSCN12`: the inhibition entry in series [1], in series [2] and in series [3] was “inactive” each time. Besides, the “growth inhibition (GI)” value in series [4] is given as “Non-Toxic”.

On to `CC(C)C[C@H]1NC(=O)[C@H](Cc2ccccc2)NC1=O`, for which the inhibition entry in series [1], in series [2] and in series [3] was “inactive” throughout. Also, in series [4], the “growth inhibition (GI)” value is on record as “Non-Toxic”.

As for `O=C1[C@@H]2CCCN2C(=O)[C@H]2CCCN12`, the inhibition result in series [1], in series [2] and in series [3] was “inactive” in each case. For the same molecule, in series [4], the “growth inhibition (GI)” value is reported as “Non-Toxic”.

Regarding `CC(C)[C@@H]1NC(=O)[C@H](C(C)C)NC1=O`, the inhibition result in series [1], in series [2] and in series [3] was “inactive” in each case. The “growth inhibition (GI)” value in series [4] is listed as “Non-Toxic”.

In the case of `O=C1N[C@@H](COCc2ccccc2)C(=O)N[C@H]1COCc1ccccc1`, the inhibition result in series [1], in series [2] and in series [3] was “inactive” in each case. Also, the “growth inhibition (GI)” value in series [4] is listed as “Non-Toxic”.

Take `C[C@@H]1NC(=O)[C@H](Cc2ccccc2)NC1=O`: the inhibition result in series [1], in series [2] and in series [3] was “inactive” in each case. Further, the “growth inhibition (GI)” value in series [4] is listed as “Non-Toxic”.

`C[C@@H]1NC(=O)[C@H](C)NC1=O`: the inhibition result in series [1], in series [2] and in series [3] was “inactive” in each case. In addition, the “growth inhibition (GI)” value in series [4] is recorded as “Non-Toxic”.

With `CC(C)C[C@H]1NC(=O)[C@@H](CC(C)C)NC1=O`, the inhibition result in series [1], in series [2] and in series [3] was “inactive” each time. Besides, the “growth inhibition (GI)” value in series [4] is recorded as “Non-Toxic”.

As to `O=C1N[C@@H](Cc2ccccc2)C(=O)N[C@H]1COCc1ccccc1`, the inhibition result in series [1], in series [2] and in series [3] was “inactive” in each case. Also, the “growth inhibition (GI)” value in series [4] is listed as “Non-Toxic”.

Turning to `O=C1[C@@H]2CCCN2C(=O)[C@@H]2CCCN12`, the inhibition result in series [1], in series [2] and in series [3] was “inactive” in each case. In addition, the “growth inhibition (GI)” value in series [4] is “Non-Toxic”.

Regarding `CC(C)C[C@@H]1NC(=O)[C@H](CC(C)C)NC1=O`, the inhibition result in series [1], in series [2] and in series [3] was “inactive” throughout. Moreover, the “growth inhibition (GI)” value in series [4] is listed as “Non-Toxic”.

On to `N=C(N)N(CCC[C@@H]1NC(=O)[C@H](CCCCNC(=O)OCc2ccccc2)NC1=O)[N+](=O)[O-]`, for which the inhibition result in series [1], in series [2] and in series [3] was “inactive” in each case. Moreover, the “growth inhibition (GI)” value in series [4] was “Non-Toxic”.

Take `CC(C)C[C@@H]1NC(=O)[C@@H](C(C)C)NC1=O`: the inhibition result in series [1], in series [2] and in series [3] was “inactive” each time. The “growth inhibition (GI)” value in series [4] was “Non-Toxic”.

`NCCCC[C@@H]1NC(=O)[C@H](Cc2ccccc2)NC1=O`: the inhibition entry in series [1], in series [2] and in series [3] was “inactive” throughout. The “growth inhibition (GI)” value in series [4] was “Non-Toxic”.

`CC(C)[C@@H]1NC(=O)[C@H](COCc2ccccc2)NC1=O`: the inhibition entry in series [1], in series [2] and in series [3] was “inactive” throughout. Moreover, the “growth inhibition (GI)” value in series [4] is “Non-Toxic”.

Consider `CC(C)[C@@H]1NC(=O)[C@H](C)NC1=O`, for which the inhibition entry in series [1], in series [2] and in series [3] was “inactive” each time. Further, in series [4], the “growth inhibition (GI)” value was “Non-Toxic”.

In the case of `CC(C)[C@H]1NC(=O)[C@@H](C(C)C)NC1=O`, the inhibition entry in series [1], in series [2] and in series [3] was “inactive” in each case. The “growth inhibition (GI)” value in series [4] is reported as “Non-Toxic”.
